Source: US8558019B2, “Thiolated paclitaxels for reaction with gold nanoparticles as drug delivery agents” (Virginia Tech Intellectual Properties, Inc., priority 2007, dated 2013)

Tested on: B16/F10 melanoma cells
Test: Efficacy study in tumor-burdened mice, tumor volume and mortality
Assay type: in vivo, C57BL/6 mice
Conditions: paclitaxel 40 mg/kg, formulations […], day 0, 2, 5 and 7
Description: The efficacy of the formulated nanodrugs was compared to that of unformulated paclitaxel for the treatment of tumor-burdened mice. For these studies C57BL/6 mice were implanted with B16/F10 melanoma cells. Once the cells formed tumors with an approximate volume of 500 mm^3 the mice (n=4/group/formulation) received an injection of either unformulated paclitaxel or one of the formulations (Formulations II, IV and XIII). Paclitaxel was given at a dose of 40 mg/kg, whereas the formulated drugs were administered at a dose of 2.5 mg/kg. The mice were treated on day 0, 2, 5 and 7 of the days and tumor responses were determined by measuring tumor volume during the course of the study

CC(=O)O[C@H]1C(=O)[C@@]2(C)[C@H]([C@H](OC(=O)c3ccccc3)[C@]3(O)C[C@H](OC(=O)[C@H](O)[C@@H](NC(=O)c4ccccc4)c4ccccc4)C(C)=C1C3(C)C)[C@]1(OC(C)=O)CO[C@@H]1C[C@@H]2O [unformulated paclitaxel, Paclitaxel]
mortality rate: 75%
